The values below are quoted from earlier work in patent US12605340B2, “Extended release composition of 2-(2-Aminothiazol-4-yl)-N-[4-(2{[(2R)-2-hydroxy-2-phenylethyl] amino} ethyl) phenyl] acetamide” (Zim Laboratories Limited, priority 2020, dated 2026).

Read-outs that look alike come from different tables or passages of the source.

In the case of `Nc1nc(CC(=O)Nc2ccc(CCNC[C@H](O)c3ccccc3)cc2)cs1` [Mirabegron, 2(2-aminothiazol-4-yl)-N-[4-(2-{[(2R)-2-hydroxy2phenylethyl]amino}ethyl)phenyl] acetamide], the Solubility result is “soluble” (in dimethyl sulfoxide), “soluble” (in methanol) and “practically insoluble” (in water).
